The values below come from patent US20240269139A1, “COMPOUNDS FOR TARGETED PROTEIN DEGRADATION OF KINASES” (DANA-FARBER CANCER INSTITUTE, INC., priority 2020, published 2024).

Format in all cases: cell-based
In assay [1] the target is protein kinases (human kinome) (Homo sapiens, UniProt Q8NI60).
Assay [2] concerns the target T1, protein kinases (human kinome) (Homo sapiens, UniProt Q9UEE5).
T1 sequence (Q9UEE5 1-414): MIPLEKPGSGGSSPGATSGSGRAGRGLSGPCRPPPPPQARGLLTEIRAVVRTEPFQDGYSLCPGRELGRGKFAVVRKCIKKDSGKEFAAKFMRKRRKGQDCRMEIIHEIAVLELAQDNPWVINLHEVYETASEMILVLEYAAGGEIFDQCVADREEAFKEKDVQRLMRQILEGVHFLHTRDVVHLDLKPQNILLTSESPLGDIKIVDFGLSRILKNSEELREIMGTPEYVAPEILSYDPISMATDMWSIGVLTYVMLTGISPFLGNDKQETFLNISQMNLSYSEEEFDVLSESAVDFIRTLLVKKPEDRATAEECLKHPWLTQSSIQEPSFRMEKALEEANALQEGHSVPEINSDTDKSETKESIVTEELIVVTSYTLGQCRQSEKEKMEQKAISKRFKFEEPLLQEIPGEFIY
The settings on record: STK17A Q9UEE5.

The target in assay [3] is protein kinases (human kinome) (Homo sapiens, UniProt Q8TDR2).
Sequence of protein kinases (human kinome) (Homo sapiens, UniProt Q8TDR2) (Q8TDR2 whole entry): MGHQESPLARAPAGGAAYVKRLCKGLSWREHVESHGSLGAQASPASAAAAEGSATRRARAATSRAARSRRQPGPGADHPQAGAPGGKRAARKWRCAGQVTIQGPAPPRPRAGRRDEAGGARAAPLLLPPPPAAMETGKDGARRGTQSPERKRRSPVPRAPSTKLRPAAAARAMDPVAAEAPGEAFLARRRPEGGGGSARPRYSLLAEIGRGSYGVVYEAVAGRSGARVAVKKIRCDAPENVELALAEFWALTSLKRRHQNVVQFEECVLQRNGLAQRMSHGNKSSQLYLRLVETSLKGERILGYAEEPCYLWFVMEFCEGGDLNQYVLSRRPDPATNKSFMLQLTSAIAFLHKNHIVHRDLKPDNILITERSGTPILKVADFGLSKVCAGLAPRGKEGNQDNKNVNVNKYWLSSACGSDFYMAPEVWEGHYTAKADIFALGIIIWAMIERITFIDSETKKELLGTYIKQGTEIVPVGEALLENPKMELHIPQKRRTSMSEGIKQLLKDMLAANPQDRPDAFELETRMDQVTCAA
Assay [4] concerns the target T2, protein kinases (human kinome) (Homo sapiens, UniProt P33981).
T2 sequence (P33981 1-857): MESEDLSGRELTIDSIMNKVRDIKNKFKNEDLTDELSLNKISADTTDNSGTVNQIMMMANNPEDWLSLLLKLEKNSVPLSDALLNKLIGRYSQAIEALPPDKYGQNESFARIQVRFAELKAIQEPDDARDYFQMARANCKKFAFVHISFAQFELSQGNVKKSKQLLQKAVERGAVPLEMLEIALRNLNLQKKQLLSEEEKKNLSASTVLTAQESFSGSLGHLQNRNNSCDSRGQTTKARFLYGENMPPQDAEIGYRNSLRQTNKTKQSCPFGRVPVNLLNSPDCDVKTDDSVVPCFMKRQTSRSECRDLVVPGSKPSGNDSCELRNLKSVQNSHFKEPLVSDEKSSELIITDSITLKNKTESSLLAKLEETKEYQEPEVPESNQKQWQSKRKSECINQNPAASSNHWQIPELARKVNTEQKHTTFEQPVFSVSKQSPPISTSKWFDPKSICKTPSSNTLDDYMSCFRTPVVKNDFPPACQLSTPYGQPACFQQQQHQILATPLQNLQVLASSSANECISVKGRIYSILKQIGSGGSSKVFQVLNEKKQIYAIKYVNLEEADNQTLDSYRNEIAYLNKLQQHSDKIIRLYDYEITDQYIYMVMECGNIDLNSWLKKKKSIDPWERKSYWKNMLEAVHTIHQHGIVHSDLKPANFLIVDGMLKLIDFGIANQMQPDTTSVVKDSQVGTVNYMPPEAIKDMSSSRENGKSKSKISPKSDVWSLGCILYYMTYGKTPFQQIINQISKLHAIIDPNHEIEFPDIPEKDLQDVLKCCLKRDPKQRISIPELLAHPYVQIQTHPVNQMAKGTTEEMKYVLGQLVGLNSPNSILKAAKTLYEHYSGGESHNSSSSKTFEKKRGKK
The settings on record: experiment wp146; for logFC TTK: Accession P33981.

Assay [5] deals with protein kinases (human kinome) (Homo sapiens, UniProt Q9HBH9). The conditions noted are these: for logFC MKNK2 (Q9HBH9-1): direction down; for logFC: MKNK2 (Q9HBH9-1).
Sequence of protein kinases (human kinome) (Homo sapiens, UniProt Q9HBH9) (Q9HBH9 whole entry): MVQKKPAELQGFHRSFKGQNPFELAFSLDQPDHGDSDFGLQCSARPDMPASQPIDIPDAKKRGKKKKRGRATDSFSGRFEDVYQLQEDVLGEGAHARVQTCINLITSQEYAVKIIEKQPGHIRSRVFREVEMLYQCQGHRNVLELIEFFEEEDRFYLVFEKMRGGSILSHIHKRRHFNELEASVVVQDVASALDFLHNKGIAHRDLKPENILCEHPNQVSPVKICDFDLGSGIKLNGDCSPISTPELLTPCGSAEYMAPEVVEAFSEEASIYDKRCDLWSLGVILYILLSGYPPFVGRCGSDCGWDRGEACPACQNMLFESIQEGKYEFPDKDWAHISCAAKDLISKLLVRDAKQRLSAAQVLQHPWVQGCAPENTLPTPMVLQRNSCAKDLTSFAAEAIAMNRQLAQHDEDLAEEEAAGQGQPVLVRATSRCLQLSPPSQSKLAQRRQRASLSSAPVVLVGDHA

Each structure is given as a SMILES string. Where two headings read alike, the source gives them in different places.

Sequence of protein kinases (human kinome) (Homo sapiens, UniProt Q8NI60) (Q8NI60 163-647): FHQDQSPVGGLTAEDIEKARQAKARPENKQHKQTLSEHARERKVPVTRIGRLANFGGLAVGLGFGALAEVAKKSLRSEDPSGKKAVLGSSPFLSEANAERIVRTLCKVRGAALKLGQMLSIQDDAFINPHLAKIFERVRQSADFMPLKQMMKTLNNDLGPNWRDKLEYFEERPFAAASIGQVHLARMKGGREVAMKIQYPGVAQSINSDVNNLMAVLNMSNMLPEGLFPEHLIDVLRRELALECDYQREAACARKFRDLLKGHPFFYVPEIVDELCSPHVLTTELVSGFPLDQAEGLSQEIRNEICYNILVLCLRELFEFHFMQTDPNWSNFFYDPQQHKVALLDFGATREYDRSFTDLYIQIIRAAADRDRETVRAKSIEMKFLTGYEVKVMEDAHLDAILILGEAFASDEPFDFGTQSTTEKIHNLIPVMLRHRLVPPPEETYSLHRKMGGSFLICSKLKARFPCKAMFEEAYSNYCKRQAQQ

In the case of `CC(C)(C)c1nc(-c2cccc(NS(=O)(=O)c3c(F)cccc3F)c2F)c(-c2ccnc(NCCOCCNC(=O)CCOCCOCCNc3cccc4c3CN(C3CCC(=O)NC3=O)C4=O)n2)s1` (stereo not shown) [DD.03.107], the “logFC COQ8A (Q8N160-1)” value in assay [1] (experiment wp147, 1 uM) is given as −0.6678; in assay [1] (experiment wp147, 2 uM) it was −0.6288; in assay [1] (experiment wp147, 4 uM), −1.121. Besides, the “logFC COQ8A (Q8NI60-1)” value in assay [1] (experiment wp147, 1 uM) is listed as −0.6678; in assay [1] (experiment wp147, 2 uM), −0.6288; in assay [1] (experiment wp147, 4 uM), −1.121.

Consider `CS(=O)(=O)Nc1cccc(-c2csc3cnc(Nc4ccc(N5CCN(CCCCCOc6cccc7c6C(=O)N(C6CCC(=O)NC6=O)C7=O)CC5)cc4)nc23)c1` (stereo not shown) [DB0614, N-(3-(2-((4-(4-(5-((2-(2,6-Dioxopiperidin-3-yl)-1,3-dioxoisoindolin-4-yl)oxy)pentyl)piperazin-1-yl)phenyl)amino)thieno[3,2-d]pyrimidin-7-yl)phenyl)methanesulfonamide], for which, in assay [2] (experiment wp045), the logFC is −1.128 and the “logFC STK17A” value is −1.128. In assay [2] (experiment wp117), the logFC was −0.969 and the “logFC STK17A” value was −0.969.

Regarding `Cc1ccc(NC(=O)c2cccc(C(F)(F)F)c2)cc1N1Cc2cnc(Nc3ccc(N4CCN(CCCCC(=O)N[C@H](C(=O)N5C[C@H](O)C[C@H]5C(=O)N[C@@H](C)c5ccc(-c6scnc6C)cc5)C(C)(C)C)CC4)nc3)nc2N(C)C1=O` [DB1113], the “logFC STK35” value in assay [3] (Accession Q8TDR2, experiment wp168, direction down) is −0.7606; in assay [3] (STK35 (Q8TDR2), experiment wp168), −0.7606.

For `Cc1cc(Nc2ncc(Br)c(Nc3cccc(F)c3C(N)=O)n2)ccc1S(=O)(=O)NCCOCCOCCOCCOCCNc1cccc2c1C(=O)N(C1CCC(=O)NC1=O)C2=O` (stereo not shown) [TMX.02.174], in assay [3] (Accession Q8TDR2, experiment wp146, direction down), the “logFC STK35” value was −0.5631. In assay [3] (STK35 (Q8TDR2), experiment wp146), the “logFC STK35” value is listed as −0.5631. Further, in assay [4], the “logFC TTK” value is −0.7225 and the “logFC TTK (P33981)” value was −0.7225.

Turning to `CC(C)(C)c1nc(-c2cccc(NS(=O)(=O)c3c(F)cccc3F)c2F)c(-c2ccnc(NCCOCCNC(=O)CCOCCOCCNc3cccc4c3C(=O)N(C3CCC(=O)NC3=O)C4=O)n2)s1` (stereo not shown) [DD.03.106], in assay [1] (experiment wp147, 1 uM), the “logFC COQ8A (Q8N160-1)” value was −0.3548 and the “logFC COQ8A (Q8NI60-1)” value was −0.3548. In assay [1] (experiment wp147, 4 uM), the “logFC COQ8A (Q8N160-1)” value is −0.8159 and the “logFC COQ8A (Q8NI60-1)” value is given as −0.8159.

`Cc1cnc(Nc2ccc(N3CCN(CCCCCCC(=O)N[C@H](C(=O)N4C[C@H](O)C[C@H]4C(=O)N[C@@H](C)c4ccc(-c5scnc5C)cc4)C(C)(C)C)CC3)cc2)nc1Nc1cccc(S(=O)(=O)NC(C)(C)C)c1` [JWG.123]: in assay [2] (experiment wp195), the logFC is −0.6451 and the “logFC STK17A” value is −0.6451.

For `CN(C)C(=O)c1cc2cnc(Nc3ccc(N4CCN(CCCCNC(=O)COc5cccc6c5C(=O)N(C5CCC(=O)NC5=O)C6=O)CC4)cn3)nc2n1C1CCCC1` (stereo not shown) [BSJ.04.132], in assay [1] (experiment wp084), the “logFC COQ8A (Q8N160-1)” value is listed as −0.5939 and the “logFC COQ8A (Q8NI60-1)” value is −0.6939.

Regarding `Cc1ccc(NC(=O)c2cccc(C(F)(F)F)c2)cc1N1Cc2cnc(Nc3ccc(N4CCN(CCCCCCOc5cccc6c5C(=O)N(C5CCC(=O)NC5=O)C6=O)CC4)nc3)nc2N(C)C1=O` (stereo not shown) [DB0663], in assay [5] (Experiment wp045), the “logFC MKNK2 (Q9HBH9-1)” value was −0.4798. Also, the logFC in assay [5] (experiment wp045) was −0.4798.

`C[C@@H]1C[C@@H](O)c2ncnc(N3CCN(C(=O)[C@H](CNCCCCCCCCCCc4cccc5c4C(=O)N(C4CCC(=O)NC4=O)C5=O)c4ccc(Cl)cc4)CC3)c21` (stereo partly shown) [INY.03.041.01]: in assay [2] (experiment wp118), the logFC is given as −0.4361 and the “logFC STK17A” value is recorded as −0.4361. In addition, in assay [2] (experiment wp135, 8 hr), the “logFC STK17A” value is reported as −0.497.

Turning to `NC(=O)c1c(F)cccc1Nc1nc(Nc2ccc(S(=O)(=O)NCCOCCOCCOCCOCCNc3cccc4c3C(=O)N(C3CCC(=O)NC3=O)C4=O)cc2)ncc1Br` (stereo not shown) [TMX.02.138], in assay [4], the “logFC TTK” value is −0.6178 and the “logFC TTK (P33981)” value is listed as −0.6178.

`CS(=O)(=O)Nc1cccc(-c2csc3cnc(Nc4ccc(N5CCN(CCOCCOCCOc6cccc7c6C(=O)N(C6CCC(=O)NC6=O)C7=O)CC5)cc4)nc23)c1` (stereo not shown) [RSS0628]: in assay [2] (experiment wp045), the logFC is on record as −1.48 and the “logFC STK17A” value was −1.48.

For the compound `Cc1ncsc1-c1ccc([C@H](C)NC(=O)[C@@H]2C[C@@H](O)CN2C(=O)[C@@H](NC(=O)CCCCCN2CCc3cc(Nc4ncc(C5CC5)c(NCCCNC(=O)C5CCC5)n4)ccc3C2)C(C)(C)C)cc1` [BSJ.05.026], in assay [2] (experiment wp195), the logFC is listed as −0.5209 and the “logFC STK17A” value was −0.5209.

As to `C=CCn1c(=O)c2cnc(Nc3ccc(N4CCN(CCCNc5cccc6c5C(=O)N(C5CCC(=O)NC5=O)C6=O)CC4)cc3)nc2n1-c1cccc(C(C)(C)O)n1` (stereo not shown) [ZNL.02.096], the “logFC COQ8A (Q8N160-1)” value is −0.4317 in assay [1] (experiment wp056) and −0.423 in assay [1] (experiment wp118). The figures for the “logFC COQ8A (Q8NI60-1)” value in assay [1] (experiment wp056) and in assay [1] (experiment wp118) were −0.4317 and −0.423, respectively. Besides, the “logFC MKNK2 (Q9HBH9-1)” value in assay [5] (Experiment wp118) is on record as −0.4751. The logFC in assay [5] (experiment wp118) was −0.4751.

As for `CC(=O)c1c(C)c2cnc(Nc3ccc(N4CCN(CCOCCOCCOCCNC(=O)COc5cccc6c5C(=O)N(C5CCC(=O)NC5=O)C6=O)CC4)cn3)nc2n(C2CCCC2)c1=O` (stereo not shown) [BSJ.03.123], in assay [1] (experiment wp084), the “logFC COQ8A (Q8N160-1)” value was −0.4611 and the “logFC COQ8A (Q8NI60-1)” value is reported as −0.4611.

For the compound `O=C(COc1cccc2c1C(=O)N(C1CCC(=O)NC1=O)C2=O)NCCCCCCCN1CCc2cc(Nc3ncc(C4CC4)c(NCCCNC(=O)C4CCC4)n3)ccc2C1` (stereo not shown) [BSJ.04.178], in assay [2] (experiment wp134), the logFC is reported as −0.7107 and the “logFC STK17A” value is −0.7107.

Take `Cc1ncsc1-c1ccc([C@H](C)NC(=O)[C@@H]2C[C@@H](O)CN2C(=O)[C@@H](NC(=O)CCCCCN2CCN(c3ccc(Nc4ncc5scc(-c6cccc(NS(C)(=O)=O)c6)c5n4)cc3)CC2)C(C)(C)C)cc1` [RSS0680, (2S,4R)-1-((S)-3,3-Dimethyl-2-(6-(4-(4-((7-(3-(methylsulfonamido)phenyl)thieno[3,2-d]pyrimidin-2-yl)amino)phenyl)piperazin-1-yl)hexanamido)butanoyl)-4-hydroxy-N—((S)-1-(4-(4-methylthiazol-5yl)phenyl)ethyl)pyrrolidine-2-carboxamide]: the “logFC STK35” value in assay [3] (Accession Q8TDR2, experiment wp117, direction down) is −0.3937; in assay [3] (STK35 (Q8TDR2), experiment wp117), −0.3937. For the same compound, the “logFC MKNK2 (Q9HBH9-1)” value was −0.4987 in assay [5] (Experiment wp080) and −0.5075 in assay [5] (Experiment wp117). Also, the logFC in assay [5] (experiment wp080) is −0.4987; in assay [5] (experiment wp117), −0.5075; in assay [2] (experiment wp080) it was −1.118; in assay [2] (experiment wp117) it was −1.379. Also, the “logFC STK17A” value in assay [2] (experiment wp080) is reported as −1.118; in assay [2] (experiment wp117), −1.379.
